Assay results: US20200131180A1, “POSITIVE ALLOSTERIC MODULATORS OF THE MUSCARINIC ACETYLCHOLINE RECEPTOR M1” (Vanderbilt University, priority 2018, published 2020)
pEC50: −log10 of the molar value.

Molecular target: T1, human mAChR M1 (Homo sapiens, UniProt P11229)
T1 sequence (P11229 1-460): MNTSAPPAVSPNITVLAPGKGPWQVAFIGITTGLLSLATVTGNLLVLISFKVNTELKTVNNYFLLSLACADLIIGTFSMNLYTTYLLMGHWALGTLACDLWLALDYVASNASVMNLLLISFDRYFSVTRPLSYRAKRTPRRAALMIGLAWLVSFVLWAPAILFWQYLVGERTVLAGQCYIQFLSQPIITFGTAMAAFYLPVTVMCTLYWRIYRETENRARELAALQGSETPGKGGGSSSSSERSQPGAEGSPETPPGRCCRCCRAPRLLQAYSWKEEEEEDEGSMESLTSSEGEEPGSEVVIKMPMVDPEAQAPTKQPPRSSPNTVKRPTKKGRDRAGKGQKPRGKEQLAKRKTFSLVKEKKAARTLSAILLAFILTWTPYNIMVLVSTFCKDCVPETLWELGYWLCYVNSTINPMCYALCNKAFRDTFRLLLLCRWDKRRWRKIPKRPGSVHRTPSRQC
Assay: mAChR M1 cell-based functional assay (calcium mobilization, PAM activity)
Details: CHO-K1 cells expressing hM1, calcium flux (Fluo-4); for pEC50: concentration-dependent increase in the EC20 acetylcholine response; for Emax: potentiation of EC20 acetylcholine response
Summary of the method: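 CHO-K1 cells stably expressing hM1, Fluo-4 AM-loaded; compounds (11-point 1:3 CRC) added, then acetylcholine at EC20 (144 s) and EC80 (230 s). Calcium flux read by FDSS fluorescence ratio; PAM activity is the concentration-dependent increase in the EC20 ACh response, Emax relative to ACh maximum; four-parameter logistic fit.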

Row | pEC50 | Emax [%] | SMILES
1 | 6.29 | 69 | Cn1ccc(-c2cc(F)c(Cc3cc(C(=O)N[C@H]4CCOC[C@@H]4O)c4nccn4c3)c(F)c2)n1 [compound 38, 6-[[2,6-difluoro-4-(1-methylpyrazol-3-yl)phenyl]methyl]-N-[(3R,4S)-3-hydroxytetrahydropyran-4-yl]imidazo[1,2-a]pyridine-8-carboxamide]
2 | 6.66 | 70 | Cn1cc(-c2ccc(Cc3cc(C(=O)N[C@H]4CCCC[C@@H]4O)c4nccn4c3)c(F)c2)cn1 [compound 54, 6-[[2-fluoro-4-(1-methylpyrazol-4-yl)phenyl]methyl]-N-[(1S,2S)-2-hydroxycyclohexyl]imidazo[1,2-a]pyridine-8-carboxamide]
3 | 6.16 | 84 | Cn1cc(-c2cc(F)c(Cc3cc(C(=O)N[C@H]4CCOC[C@@H]4O)c4ncnn4c3)c(F)c2)cn1 [compound 43, 6-[[2,6-difluoro-4-(1-methylpyrazol-4-yl)phenyl]methyl]-N-[(3R,4S)-3-hydroxytetrahydropyran-4-yl]-[1,2,4]triazolo[1,5-a]pyridine-8-carboxamide]
4 | 5.43 | 35 | Cn1cc(-c2ccc(Cc3cc(C(=O)NC4CCOCC4)c4ncnn4c3)cc2)cn1 [compound 34, 6-[[4-(1-methylpyrazol-4-yl)phenyl]methyl]-N-tetrahydropyran-4-yl-[1,2,4]triazolo[1,5-a]pyridine-8-carboxamide]
5 |  | 36 | O=C(N[C@H]1CCOC[C@@H]1O)c1cc(Cc2ccc(C(F)(F)F)nc2)cn2ccnc12 [compound 66, N-[(3R,4S)-3-hydroxytetrahydropyran-4-yl]-6-[[6-(trifluoromethyl)-3-pyridyl]methyl]imidazo[1,2-a]pyridine-8-carboxamide]
6 | 5.39 | 74 | Cn1ccc(-c2ccc(Cc3cc(C(=O)N[C@@H]4CC[C@H]4O)c4ncnn4c3)cc2)n1 [compound 10, N-[(1R,2R)-2-hydroxycyclobutyl]-6-[[4-(1-methylpyrazol-3-yl)phenyl]methyl]-[1,2,4]triazolo[1,5-a]pyridine-8-carboxamide]
7 | 6.03 | 83 | Cn1ccc(-c2cc(F)c(Cc3cc(C(=O)N[C@H]4CCCC[C@@H]4O)c4ncnn4c3)c(F)c2)n1 [compound 42, 6-[[2,6-difluoro-4-(1-methylpyrazol-3-yl)phenyl]methyl]-N-[(1S,2S)-2-hydroxycyclohexyl]-[1,2,4]triazolo[1,5-a]pyridine-8-carboxamide]
8 | 5.82 | 80 | Cn1ccc(-c2ccc(Cc3cc(C(=O)N[C@@H]4CCC[C@H]4O)c4nccn4c3)cc2)n1 [compound 4, N-[(1R,2R)-2-hydroxycyclopentyl]-6-[[4-(1-methylpyrazol-3-yl)phenyl]methyl]imidazo[1,2-a]pyridine-8-carboxamide]
9 | 6.86 | 59 | Cc1c(Cc2ccc(-c3ccn(C)n3)cc2)cc(C(=O)N[C@H]2CCCC[C@@H]2O)c2nccn12 [compound 51, N-[(1S,2S)-2-hydroxycyclohexyl]-5-methyl-6-[[4-(1-methylpyrazol-3-yl)phenyl]methyl]imidazo[1,2-a]pyridine-8-carboxamide]
